The nature of series [1]: Stability to demetallation (sulfide, thiosulfate). In kind it is physicochemical. The settings on record: aqueous Na2 S / excess sulfide anion. The source says: The above K1 and K2 (or K1 K2) values are predicated on the assumption that the cadmium complexes under discussion are stable with regards to demetallation and that the equilibria of equations 1 and 2 (or 3) pertain under the conditions of base binding. The first of these concerns is readily apparent: If demetallation occurs, then obviously one is not studying base binding! […] The second concern is particularly important within the context of quantitative work: If, for instance, the starting complex 3.cndot.NO3 is not rigorously five coordinate, then K1 (and perhaps K2 as well) would represent an axial ligand displacement reaction rather than a pure addition process as implied above. Control experiments indicate that the assumption of initial five coordination is reasonable: Independent titrations of 3A .cndot.NO3 with NH4 NO3 and H2 O indicate that only modest and monotonic changes in the chemical shift of the "meso" signals take place over the course of adding ≥50 equivalents of these potentially adventitious ligands.^40 This means that either "complete" binding occurs at 1:1 stoichiometry (essentially ruled out in the case of H2 O on the basis of analytical data), or that these species are poorly coordinating in CHCl3 so that five coordination pertains about cadmium; the latter interpretation appearing more likely.
Attempts to demetallate complex 3A .cndot.NO3 were made. In an effort to obtain the free sp^2 bridged ligand 2A, the above complex in chloroform was stirred for several hours in the presence of sodium sulfide and independently with sodium thiosulfate. […] In the case of sodium sulfide, this critical conclusion was further supported by FAB MS: Other than the starting cationic complex 3A, no evidence was obtained for any moderate to high molecular weight volatile products in the mass spectrum. […] The rate of this process, however, is strongly pH dependent, the half-life being, for instance, on the order of several hours in the presence of ca. 0.1N HCl.

The conditions of series [2]: benzene, cited from earlier work.
Series [3] is described as follows: Imine hydrolysis half-life by pH.
A further series relates to HSV-1. As to the kind of experiment: Preliminary in vitro photo-killing of HSV-1 infectivity. In kind it is cell-based. The source says:
(§1) Several preliminary in vitro biological studies have been carried out with the cadmium(II) complexes of the 18 and 22 π-electron texaphyrins 14D and 5D. […] This latter result, in particular, augurs well for the eventual use of these materials in prophylactic photodynamic anti-AIDS blood-treatment programs. The 2 log decrease in HSV-1 activity achieved with the texaphyrin systems studied to date is not yet sufficient to completely design a viable protocol: Both HPD and PII, as well as sapphyrin (6D) , reprepared by literature methods^70 provide about a 5 log decrease in viral activity under similar light fluence when irradiated at the appropriate lowest energy transition (630 and 690 nm, respectively). Although a mechanistic comparison with the incompletely characterized hematoporphyrin-derived systems is difficult, a direct structural correspondence exists between the tripyrroledimethine-derived cadmium(II) texaphyrin and free-base sapphyrin systems: The main difference is in overall charge on the photosensitizer. It may thus be that these two macrocycle types are bound to the virus envelope in a different manner; perhaps the sapphyrin "intercalates" into the lipid layer and the charged metallotexaphyrin sits on the surface of the membrane and as such could suffer from deleterious aggregations (which would lower singlet oxygen production).

Another series has as its system lymphocytes. As to the kind of experiment: Localization on lymphocytes by absorption and emission measurements. In kind it is cell-based.
Text: as §1

The nature of series [4]: Cytotoxicity in the absence of light. In kind it is cell-based. As to conditions: preliminary.
Text: In addition, some preliminary toxicity and stability information will begin to emerge from these in vitro experiments.
For series [5] the following is noted: 1:1 methanol/water.
In the next series the test system is lymphocyte. The series can be described thus: Preliminary in vitro lymphocyte mitogenic activity study in 10% human serum. The settings on record: irradiation at 767 nm. In kind it is cell-based. The source says: (§2) In summary, the new metallotexaphrin complexes discussed here show three important optical properties which make them unique among existing porphyrin-like macrocycles. They absorb strongly in a physiologically important region (i.e. 730-770 nm), form long-lived triplet states in high yield, and act as efficient photosensitizers for the formation of singlet oxygen (see, e.g. FIG. 21).

Another series has as its system herpes simplex (HSV-1). The series can be described thus: Preliminary in vitro HSV-1 infectivity study in 10% human serum. In kind it is cell-based. The settings on record: irradiation at 767 nm.
Text: as §2

Series [6] in a line: Optical and photophysical properties of metallotexaphyrins (laser flash photolysis, fluorescence, singlet oxygen luminescence). In kind it is physicochemical. Details: tt (triplet lifetime): unit not given here. The settings on record: CH3 OH. From the text: Finally, several complexes containing paramagnetic metal ions (e.g. Mn^II, Sm^III, and Eu^III, structures 5c -7c) were investigated.
Comparison of the initial intensity with that obtained using tetrakis (4-hydroxyphenyl)porphyrin (THPP) as photosensitizer^3b under identical conditions allowed calculation of the quantum yields for production of singlet oxygen (^.phi. 1.cndot.2).

The nature of series [7]: Stability in methanol/water or water (decomplexation, decomposition).
Series [8] concerns rapidly growing tissues including sarcomas and carcinomas. The settings on record: in vivo; cited from earlier work.
Series [9] can be described thus: Stability of free-base macrocycle. In kind it is physicochemical.
Series [10] concerns enveloped viruses (HSV-1, cytomegalovirus, measles virus, HIV-1). The settings on record: previous studies; cited from earlier work.

Entries after “also recorded” stand apart in the source; their conditions may differ. Where two headings read alike, the source gives them in different places.

As for “cadmium tetraphenyl porphyrin [CdTPP, reference compound]”, in [1], the demetallation by sulfide result was “serves to demetallate CdTPP; also recorded: leads to cation loss and precipitation of CdS”. In addition, the Kd in [2] (29.9°, read-out: K1 (single pyridine axial ligand) (converted)) is ~370 µM. In [2] (pyridine-containing), the “formation of bisligated species” value is recorded as “no evidence for the formation of a bisligated CdTPP-(pyr)2”.

As to `CCC1=C(C)c2cnc3ccccc3ncc3nc(cc4[n-]c(cc1n2)c(CC)c4CC)C(CC)=C3C.[Cd+2]` [complex 2B], the “half-life for imine hydrolysis” value in [3] (pH 2) is given as “several hours”; in [3] (pH 7), > 30 days.

On to `CCc1c(CC)c2cc3nc(cc4[nH]c(c(C)c4CC)c4[nH]c(cc5nc(cc1[nH]2)C(CCC(=O)N(CCO)CCO)=C5C)c(CC)c4C)C(C)=C3CCC(=O)N(CCO)CCO` [6D, reference compound], for which the “decrease in viral activity” value in the series with HSV-1 (similar light fluence, at lowest energy transition (630 and 690 nm, respectively)) is given as ~5 log.

For the molecule `CCC1=C(C)c2cnc3ccccc3ncc3nc(cc4[nH]c(cc1n2)c(CC)c4CC)C(CC)=C3C` [5D], the “photo-killing of HSV-1 infectivity” value in the series with HSV-1 (20 J/cm^2 at lowest energy absorption (690 nm for 14D, 767 nm for 5D)) is reported as “ca. 2 log”. In addition, the dark antiviral activity entry with HSV-1 (dark) was “neither 5D nor 14D show any appreciable dark antiviral activity”. The localization on lymphocytes result in the series with lymphocytes is on record as “localize selectively on lymphocytes”. Further, in series [4], the general cytotoxicity result is reported as “nor, fortunately, do they show much evidence of general cytotoxicity in the absence of light”.

`CCC1=C(C)c2cnc3ccccc3ncc3nc(cc4[n-]c(cc1n2)c(CC)c4CC)C(CC)=C3C.[Y+3]` [Y^3+ complex of texaphyrin]: the “half-lives for decomplexation and/or ligand decomposition” value in series [5] is recorded as “exceed 3 weeks”.

As for `CCC1=C(C)c2cnc3ccccc3ncc3nc(cc4[n-]c(cc1n2)c(CC)c4CC)C(CC)=C3C.O=[N+]([O-])[O-].[Cd+2]` [3C NO3], the lymphocyte mitogenic activity entry in the series on lymphocyte is “significant decrease”. Further, the HSV-1 infectivity entry in the series with herpes simplex (HSV-1) is listed as “significant decrease”. Besides, in series [6], the Emission gmax is reported as 780 nm and the “S (= phi 1O2 / phi t)” value came to 0.78. The “tt (triplet lifetime)” value in series [6] (deoxygenated) is recorded as 55. Moreover, the “Absorption gmax (Soret-type band)” value in [6] (first value (Soret)) is listed as 417 nm. The “Absorption gmax (Q-type band)” value in series [6] (second value (Q-type)) was 759 nm. In addition, the “Dt (triplet quantum yield)” value in series [6] (±5%) turned out to be 0.88. Further, in series [6] (±10%), the “D^1 O2 (singlet oxygen quantum yield)” value was found to be 0.69 and the “Df (fluorescence quantum yield)” value was determined as 0.011.

Take `CCC1=C(C)c2cnc3ccccc3ncc3nc(cc4[n-]c(cc1n2)c(CC)c4CC)C(CC)=C3C.[In+3]` [In^3+ complex of texaphyrin]: in [7], the “hydrolytic stability (in words)” value was “kinetically and hydrolytically stable”. Also, the “half-lives for decomplexation and/or ligand decomposition” value in [7] (1:1 methanol-water) is reported as “exceed 3 weeks”.

`CC1=C(CCC(=O)O)c2cc3[nH]c(cc4nc(cc5[nH]c(cc1n2)c(C)c5C(C)O)C(C)=C4C(C)O)c(C)c3CCC(=O)O` (centres unmarked) [hematoporphyrin]: the “localization in rapidly growing tissues” value in series [8] is “localize selectively in rapidly growing tissues including sarcomas and carcinomas”.

As to `CCC1=C(C)c2cnc3ccccc3ncc3nc(cc4[nH]c(cc1n2)c(CC)c4CC)C(CC)=C3C` [compound 2, 4,5,9,24-tetraethyl-10,23-dimethyl-13,20,25,26,27-pentaazapentacyclo [20.2.1.1^3,6.1^8,11.0^14,19] heptacosa-1,3,5,7,9,11(27), 12,14,16,18,20,22 (25),23-tridecaene], in [9], the “stability of free-base relative to compound 1” value is given as “undergoes decomposition far more slowly than compound 1”.

With `CCC1=C(C)C2=[N+]3C1=Cc1c(CC)c(CC)c4[n]1[Gd-2]315[N+](=C2)c2cc(C)c(C)cc2[N+]1=CC1=[N+]5C(=C4)C(CC)=C1C.[OH-].[OH-]` [complex 7B], in [5], the half-life result is on record as “over 5 weeks”. Moreover, the “half-life for decomplexation and/or decomposition” value in series [5] was ≥ 100 days. Besides, in series [5] (336 h, 35 µM), the “bleaching of the Soret and Q-type bands” value is listed as “less than 10%”. Moreover, the “half-life for imine hydrolysis” value (pH 2) is listed as “several hours” and the “half-life for imine hydrolysis” value (pH 7) is on record as > 30 days.

In the case of `CCC1=C(C)c2cnc3ccccc3ncc3nc(cc4[n-]c(cc1n2)c(CC)c4CC)C(CC)=C3C.[Cd+2]` [cadmium(II) complex of 5D], in series [4], the general cytotoxicity result is “not appreciable cytotoxic”.

As to dihematoporphyrin ether [DHE], the inactivation of viruses result in series [10] is “only those viruses studied which are enveloped or possess a membraneous coat are inactivated”.
